Experimental data from patent US6358885B1, “Substituted phenylheterocyclic herbicides” (Mississippi State University, priority 1992, dated 2002).

How the values were obtained:
corn [1] = test: Test B preemergence/postemergence greenhouse plant response rating 0 to 10; format: in vivo, Zea mays; settings: for Plant response rating, Corn: 0 to 10 scale
In short: (§1)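 Postemergence treatment of plants two to eighteen cm tall ran alongside preemergence treatment of planted seed, each using compound in a non-phytotoxic solvent.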

ryegrass = test: Test C preemergence/postemergence greenhouse plant response rating 0 to 100; format: in vivo, Lolium multiflorum; settings: POSTEMERGENCE
In short: (§2)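 Compounds in non-phytotoxic solvent went onto sandy loam before emergence (seeded one day earlier) or onto plants at the one-to-four leaf stage. Duck salad was treated via flood water (~2.5 cm, maintained) over silt loam.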

velvetleaf = test: Test B preemergence/postemergence greenhouse plant response rating 0 to 10; format: in vivo, Abutilon theophrasti; settings: 0 to 10 scale
In short: as §1

morningglory = test: Test C preemergence/postemergence greenhouse plant response rating 0 to 100; format: in vivo, Ipomoea hederacea; settings: POSTEMERGENCE
In short: as §2

purple nutsedge = test: Test B preemergence/postemergence greenhouse plant response rating 0 to 10; format: in vivo, Cyperus rotundus; settings: 0 to 10 scale
In short: as §1

barley = test: as above; format: in vivo, Hordeum vulgare; settings: for Plant response rating, Barley: 0 to 10 scale
In short: as §1

rice = test: Test C flood test plant response rating 0 to 100; format: in vivo, Oryza sativa
In short: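 Compounds in non-phytotoxic solvent applied preemergence to sandy loam one day after planting, postemergence at the 1–4 leaf stage, or to ~2.5 cm floodwater over silt loam.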

rape = test: Test C preemergence/postemergence greenhouse plant response rating 0 to 100; format: in vivo, Brassica napus; settings: POSTEMERGENCE
In short: as §2

sorghum = test: Test B preemergence/postemergence greenhouse plant response rating 0 to 10; format: in vivo, Sorghum bicolor; settings: 0 to 10 scale
In short: as §1

crabgrass = test: Test C preemergence/postemergence greenhouse plant response rating 0 to 100; format: in vivo, Digitaria sanguinalis; settings: POSTEMERGENCE
In short: as §2

chickweed = test: Test B preemergence/postemergence greenhouse plant response rating 0 to 10; format: in vivo, Stellaria media; settings: Rate 10 g/ha, 0 to 10 scale
In short: as §1

sugar beet = test: as above; format: in vivo, Beta vulgaris; settings: 0 to 10 scale
In short: as §1

wild oat = test: Test C preemergence/postemergence greenhouse plant response rating 0 to 100; format: in vivo, Avena fatua; settings: POSTEMERGENCE
In short: as §2

corn [2] = test: as above; format: in vivo, Zea mays; settings: POSTEMERGENCE
In short: as §2

barnyardgrass = test: Test B preemergence/postemergence greenhouse plant response rating 0 to 10; format: in vivo, Echinochloa crus-galli; settings: for Plant response rating, Barnyardgrass: 0 to 10 scale
In short: as §1

blackgrass = test: as above; format: in vivo, Alopecurus myosuroides; settings: for Plant response rating, Blackgrass: 0 to 10 scale
In short: as §1

bedstraw = test: Test C preemergence/postemergence greenhouse plant response rating 0 to 100; format: in vivo, Galium aparine; settings: POSTEMERGENCE
In short: as §2

wheat = test: as above; format: in vivo, Triticum aestivum; settings: POSTEMERGENCE
In short: as §2

CCCN1C(=O)COc2cc(F)c(-c3nn4c(c3Cl)CCCC4)cc21 [Compound 32]
Plant response rating, Corn (corn [1]; POSTEMERGENCE, Rate 10 g/ha): 3 | Plant response rating (0 to 10 scale), Corn (corn [1]; POSTEMERGENCE, Rate 50 g/ha): 4 | Plant response rating, Corn (corn [1]; PREEMERGENCE, Rate 50 g/ha): 0 | Plant response rating Ryegrass (ryegrass; 62 g/ha, 0 to 100 scale): 40 | Plant response rating (0 to 100), Ryegrass (ryegrass; Rate 1 g/ha): 10 | Plant response rating (0 to 100), Ryegrass (ryegrass; Rate 4 g/ha): 20 | Plant response rating (0 to 100), Ryegrass (ryegrass; Rate 16 g/ha): 30 | Plant response rating, Velvetleaf (velvetleaf; POSTEMERGENCE, Rate 10 g/ha): 10 | Plant response rating, Velvetleaf (velvetleaf; POSTEMERGENCE, Rate 50 g/ha): 10 | Plant response rating, Velvetleaf (velvetleaf; PREEMERGENCE, Rate 50 g/ha): 10 | Plant response rating, Morningglory (morningglory; 62 g/ha, 0 to 100 scale): 100 | Plant response rating (0 to 100), Morningglory (morningglory; Rate 1 g/ha): 50 | Plant response rating (0 to 100), Morningglory (morningglory; Rate 4 g/ha): 70 | Plant response rating (0 to 100), Morningglory (morningglory; Rate 16 g/ha): 100 | Plant response rating, Nutsedge (purple nutsedge; POSTEMERGENCE, Rate 10 g/ha): 2 | Plant response rating, Nutsedge (purple nutsedge; POSTEMERGENCE, Rate 50 g/ha): 4 | Plant response rating, Nutsedge (purple nutsedge; PREEMERGENCE, Rate 50 g/ha): 0 | Plant response rating, Barley (barley; POSTEMERGENCE, Rate 10 g/ha): 5 | Plant response rating (0 to 10 scale), Barley (barley; POSTEMERGENCE, Rate 50 g/ha): 5 | Plant response rating, Barley (barley; PREEMERGENCE, Rate 10 g/ha): 0 | Plant response rating, Barley (barley; PREEMERGENCE, Rate 50 g/ha): 0 | Plant response rating (0 to 100), Rice Japonica (rice; POSTEMERGENCE section, flood test, Rate 1 g/ha): 0 | Plant response rating (0 to 100), Rice Japonica (rice; POSTEMERGENCE section, flood test, Rate 4 g/ha): 20 | Plant response rating (0 to 100), Rice Japonica (rice; Rate 16 g/ha, under POSTEMERGENCE head (flood test species)): 30 | Plant response rating Rice Japonica (rice; flood test species listed under POSTEMERGENCE, 62 g/ha, 0 to 100 scale): 75 | Plant response rating, Rape (rape; 62 g/ha, 0 to 100 scale): 100 | Plant response rating (0 to 100), Rape (rape; Rate 1 g/ha): 60 | Plant response rating (0 to 100), Rape (rape; Rate 4 g/ha): 85 | Plant response rating (0 to 100), Rape (rape; Rate 16 g/ha): 95 | Plant response rating, Sorghum (sorghum; POSTEMERGENCE, Rate 10 g/ha): 6 | Plant response rating, Sorghum (sorghum; POSTEMERGENCE, Rate 50 g/ha): 6 | Plant response rating, Sorghum (sorghum; PREEMERGENCE, Rate 50 g/ha): 2 | Plant response rating, Crabgrass (crabgrass; 62 g/ha, 0 to 100 scale): 40 | Plant response rating (0 to 100), Crabgrass (crabgrass; Rate 1 g/ha): 10 | Plant response rating (0 to 100), Crabgrass (crabgrass; Rate 4 g/ha): 20 | Plant response rating (0 to 100), Crabgrass (crabgrass; Rate 16 g/ha): 30 | Plant response rating, Chickweed (chickweed; POSTEMERGENCE): 10 | Plant response rating, Chickweed (chickweed; PREEMERGENCE): 0 | Plant response rating, Sugar beet (sugar beet; POSTEMERGENCE, Rate 10 g/ha): 10 | Plant response rating, Sugar beet (sugar beet; POSTEMERGENCE, Rate 50 g/ha): 10 | Plant response rating, Sugar beet (sugar beet; PREEMERGENCE, Rate 50 g/ha): 7 | Plant response rating, Wild oat (wild oat; 62 g/ha, 0 to 100 scale): 50 | Plant response rating (0 to 100), Wild oat (wild oat; Rate 1 g/ha): 20 | Plant response rating (0 to 100), Wild oat (wild oat; Rate 4 g/ha): 30 | Plant response rating (0 to 100), Wild oat (wild oat; Rate 16 g/ha): 30 | Plant response rating, Corn (corn [2]; 62 g/ha, 0 to 100 scale): 50 | Plant response rating (0 to 100), Corn (corn [2]; Rate 1 g/ha): 20 | Plant response rating (0 to 100), Corn (corn [2]; Rate 4 g/ha): 30 | Plant response rating (0 to 100), Corn (corn [2]; Rate 16 g/ha): 40 | Plant response rating, Barnyardgrass (barnyardgrass; POSTEMERGENCE, Rate 10 g/ha): 3 | Plant response rating (0 to 10 scale), Barnyardgrass (barnyardgrass; POSTEMERGENCE, Rate 50 g/ha): 5 | Plant response rating, Barnyardgrass (barnyardgrass; PREEMERGENCE, Rate 10 g/ha): 0 | Plant response rating, Barnyardgrass (barnyardgrass; PREEMERGENCE, Rate 50 g/ha): 1 | Plant response rating, Blackgrass (blackgrass; POSTEMERGENCE, Rate 10 g/ha): 4 | Plant response rating (0 to 10 scale), Blackgrass (blackgrass; POSTEMERGENCE, Rate 50 g/ha): 5 | Plant response rating, Blackgrass (blackgrass; PREEMERGENCE, Rate 10 g/ha): 5 | Plant response rating, Blackgrass (blackgrass; PREEMERGENCE, Rate 50 g/ha): 5 | Plant response rating, Bedstraw (bedstraw; 62 g/ha, 0 to 100 scale): 100 | Plant response rating (0 to 100), Bedstraw (bedstraw; Rate 1 g/ha): 85 | Plant response rating (0 to 100), Bedstraw (bedstraw; Rate 4 g/ha): 90 | Plant response rating (0 to 100), Bedstraw (bedstraw; Rate 16 g/ha): 100 | Plant response rating, Wheat (wheat; 62 g/ha, 0 to 100 scale): 50 | Plant response rating (0 to 100), Wheat (wheat; Rate 1 g/ha): 10 | Plant response rating (0 to 100), Wheat (wheat; Rate 4 g/ha): 30 | Plant response rating (0 to 100), Wheat (wheat; Rate 16 g/ha): 30
